# Results reported in patent publication US10961189B2, “Spiro-lactam NMDA receptor modulators and uses thereof” (Aptinyx Inc., priority 2016, dated 2021).
# Tests used:
# [1] = molecular target: T1, NMDAR2B (Homo sapiens, UniProt Q13224); test: [3H]MK-801 binding in NMDAR expressing HEK cell membranes (facilitation of NMDAR activation); type: biochemical; details: 50 μM glutamate; for Emax: 0.25 h, read-out: A: % maximal [3H]MK-801 binding relative to 1 mM glycine; for EC50: read-out: B: log EC50 (converted)
# T1 construct: expressed in transfected cells; host or cells: HEK cells (membrane extract)
# T1 sequence (Q13224 27-1484, species assumed, other chains not shown): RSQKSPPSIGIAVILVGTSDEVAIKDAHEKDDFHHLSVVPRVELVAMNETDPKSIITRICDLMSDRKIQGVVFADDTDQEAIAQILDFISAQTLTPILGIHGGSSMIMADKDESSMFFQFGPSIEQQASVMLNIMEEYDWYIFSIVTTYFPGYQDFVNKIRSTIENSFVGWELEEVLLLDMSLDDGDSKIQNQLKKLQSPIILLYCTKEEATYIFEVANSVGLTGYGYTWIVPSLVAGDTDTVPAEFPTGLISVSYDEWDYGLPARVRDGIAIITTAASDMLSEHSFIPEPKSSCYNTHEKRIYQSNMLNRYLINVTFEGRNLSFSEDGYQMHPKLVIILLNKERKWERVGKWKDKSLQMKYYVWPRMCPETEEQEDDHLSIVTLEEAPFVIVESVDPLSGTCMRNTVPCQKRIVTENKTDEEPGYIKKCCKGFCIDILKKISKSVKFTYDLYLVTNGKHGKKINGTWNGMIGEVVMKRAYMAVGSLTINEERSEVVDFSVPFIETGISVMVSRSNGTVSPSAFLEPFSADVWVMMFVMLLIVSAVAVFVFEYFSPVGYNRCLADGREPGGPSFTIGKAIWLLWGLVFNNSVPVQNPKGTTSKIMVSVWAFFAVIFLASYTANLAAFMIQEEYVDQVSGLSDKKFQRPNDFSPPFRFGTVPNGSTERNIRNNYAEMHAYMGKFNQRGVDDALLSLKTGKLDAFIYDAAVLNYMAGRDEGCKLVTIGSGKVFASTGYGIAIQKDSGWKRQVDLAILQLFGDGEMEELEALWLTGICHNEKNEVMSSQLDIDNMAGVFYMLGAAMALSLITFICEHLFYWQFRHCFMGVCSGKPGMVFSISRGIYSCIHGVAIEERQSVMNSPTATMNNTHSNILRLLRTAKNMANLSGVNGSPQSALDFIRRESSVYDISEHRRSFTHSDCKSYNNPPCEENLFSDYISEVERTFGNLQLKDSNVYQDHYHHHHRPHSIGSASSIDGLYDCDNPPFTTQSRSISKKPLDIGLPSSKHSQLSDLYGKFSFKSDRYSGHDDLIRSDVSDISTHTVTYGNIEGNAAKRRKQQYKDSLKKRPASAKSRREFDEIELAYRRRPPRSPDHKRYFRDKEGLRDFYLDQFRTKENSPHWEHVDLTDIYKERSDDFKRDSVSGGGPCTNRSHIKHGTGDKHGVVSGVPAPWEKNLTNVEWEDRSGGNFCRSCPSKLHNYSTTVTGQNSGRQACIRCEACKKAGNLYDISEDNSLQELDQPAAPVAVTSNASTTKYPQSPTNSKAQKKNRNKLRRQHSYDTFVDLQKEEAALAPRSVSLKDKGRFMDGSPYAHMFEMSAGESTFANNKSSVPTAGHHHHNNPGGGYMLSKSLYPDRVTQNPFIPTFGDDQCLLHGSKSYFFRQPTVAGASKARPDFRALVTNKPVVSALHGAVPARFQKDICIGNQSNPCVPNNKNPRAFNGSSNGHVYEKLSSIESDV
# Description: (§1) Assays were conducted as described by Moskal et al., “GLYX-13: a monoclonal antibody-derived peptide that acts as an N-methyl-D-aspartate receptor modulator,” Neuropharmacology, 49, 1077-87, 2005. These studies were designed to determine if the test compounds act to facilitate NMDAR activation in NMDAR2A, NMDAR2B, NMDAR2C or NMDAR2D expressing HEK cell membranes as measured by increases in [^3H]MK-801 binding.
# (§2) In the assay, 300 μg of NMDAR expressing HEK cell membrane extract protein was preincubated for 15 minutes at 25° C. in the presence of saturating concentrations of glutamate (50 μM) and varying concentrations of test compound (1×10^15M−1×10^−7M), or 1 mM glycine. Following the addition of 0.3 μCi of [^3H]MK-801 (22.5 Ci/mmol), reactions were again incubated for 15 minutes at 25° C. (nonequilibrium conditions). Bound and free [^3H]MK-801 were separated via rapid filtration using a Brandel apparatus.
# (§3) In analyzing the data, the DPM (disintegrations per minute) of [^3H]MK-801 remaining on the filter were measured for each concentration of test compound or for 1 mM glycine. The DPM values for each concentration of a ligand (N=2) were averaged. The baseline value was determined from the best fit curve of the DPM values modeled using the GraphPad program and the log(agonist) vs. response (three parameters) algorithm was then subtracted from all points in the dataset. The % maximal [^3H]MK-801 binding was then calculated relative to that of 1 mM glycine: all baseline subtracted DPM values were divided by the average value for 1 mM glycine. The EC50 and % maximal activity were then obtained from the best fit curve of the % maximal [^3H]MK-801 binding data modelled using the GraphPad program and the log(agonist) vs. response (three parameters) algorithm.
# (§4) The tables below summarize the results for the wild type NMDAR agonists NMDAR2A, NMDAR2B, NMDAR2C, and NMDAR2D, and whether the compound is not an agonist (−), is an agonist (+), or is a strong agonist (++), where column A is based on the % maximal [^3H]MK-801 binding relative to 1 mM glycine (−=0; <100%=+; and >100%=++); and column B is based on log EC50 values (0=−; ≥1×10^−9 M (e.g., −8)=+; and <1×10^−9 M (e.g., −10)=++).
# [2] = molecular target: T2, NMDAR2A (Homo sapiens, UniProt Q12879); test: as above; type: biochemical; details: 50 μM glutamate; for EC50: read-out: B: log EC50 (converted); for Emax: 0.25 h, read-out: A: % maximal [3H]MK-801 binding relative to 1 mM glycine
# T2 construct: expressed in transfected cells; host or cells: HEK cells (membrane extract)
# T2 sequence (Q12879 23-1464, species assumed, other chains not shown): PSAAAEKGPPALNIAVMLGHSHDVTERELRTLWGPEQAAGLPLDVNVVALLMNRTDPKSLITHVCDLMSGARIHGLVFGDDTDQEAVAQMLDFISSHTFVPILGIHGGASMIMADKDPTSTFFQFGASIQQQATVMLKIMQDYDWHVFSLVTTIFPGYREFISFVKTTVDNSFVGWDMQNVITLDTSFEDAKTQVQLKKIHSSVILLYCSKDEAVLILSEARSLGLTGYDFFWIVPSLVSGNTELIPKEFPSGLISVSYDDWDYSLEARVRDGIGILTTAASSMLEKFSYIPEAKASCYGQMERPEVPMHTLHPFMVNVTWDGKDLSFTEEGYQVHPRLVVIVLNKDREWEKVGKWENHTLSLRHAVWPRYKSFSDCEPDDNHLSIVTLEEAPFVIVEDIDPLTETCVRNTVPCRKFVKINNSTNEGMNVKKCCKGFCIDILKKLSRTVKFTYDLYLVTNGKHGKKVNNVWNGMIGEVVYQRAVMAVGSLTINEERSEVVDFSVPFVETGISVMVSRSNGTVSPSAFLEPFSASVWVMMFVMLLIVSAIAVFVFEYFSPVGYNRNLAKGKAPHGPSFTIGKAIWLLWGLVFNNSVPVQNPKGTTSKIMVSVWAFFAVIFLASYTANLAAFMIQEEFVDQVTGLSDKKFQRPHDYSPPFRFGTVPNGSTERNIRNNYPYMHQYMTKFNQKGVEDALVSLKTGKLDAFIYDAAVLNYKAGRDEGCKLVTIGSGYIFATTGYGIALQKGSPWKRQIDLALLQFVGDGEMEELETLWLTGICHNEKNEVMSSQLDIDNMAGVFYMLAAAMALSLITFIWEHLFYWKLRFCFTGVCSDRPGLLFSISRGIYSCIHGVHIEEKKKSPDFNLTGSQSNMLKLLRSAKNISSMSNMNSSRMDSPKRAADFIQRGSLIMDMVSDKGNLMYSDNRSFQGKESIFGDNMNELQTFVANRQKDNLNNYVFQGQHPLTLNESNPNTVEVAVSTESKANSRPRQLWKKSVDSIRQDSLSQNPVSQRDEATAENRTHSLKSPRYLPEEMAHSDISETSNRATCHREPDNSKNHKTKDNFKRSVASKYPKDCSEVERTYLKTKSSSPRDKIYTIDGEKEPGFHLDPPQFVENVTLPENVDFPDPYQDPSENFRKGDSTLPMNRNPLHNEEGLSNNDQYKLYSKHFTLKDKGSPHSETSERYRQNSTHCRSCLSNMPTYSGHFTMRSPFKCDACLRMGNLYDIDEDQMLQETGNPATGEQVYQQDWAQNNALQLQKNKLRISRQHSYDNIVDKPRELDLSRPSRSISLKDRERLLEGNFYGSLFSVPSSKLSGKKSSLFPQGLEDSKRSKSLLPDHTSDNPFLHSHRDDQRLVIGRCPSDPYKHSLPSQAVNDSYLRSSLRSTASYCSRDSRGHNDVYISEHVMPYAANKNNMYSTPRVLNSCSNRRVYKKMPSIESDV
# Description: as §1, §2, §3, §4
# [3] = IV pharmacokinetics; type: in vivo, Sprague Dawley rats; details: rat, normal saline (* in 5% NMP, 5% Solutol HS, 90% normal saline); for AUC(0-t) / half-life / C0 / Vd: Sprague-Dawley, in vivo, iv, 2 mg/kg; for C0: read-out: C0; for Vd: read-out: Vss; for CI: intravenous 2 mg/kg
# From the text: The table below summarizes the results of the IV pharmacokinetics.
# [4] = oral pharmacokinetics (plasma, brain, CSF); type: in vivo, Sprague Dawley rats; details: rat, per os 10 mg/kg; for AUC(0-t) / bioavailability / Tmax / Cmax: Sprague-Dawley, plasma, po, 10 mg/kg; for Tmax: normal saline (* in 5% NMP, 5% Solutol HS, 90% normal saline), read-out: Tmax; for Cmax: read-out: Cmax
# Description: In another experiment, Sprague Dawley rats were dosed per os using a normal saline formulation containing 10 mg/kg of the compounds identified in the table below (except for the compounds marked with an asterisk (“*”) that were delivered in 5% NMP, 5% Solutol® HS and 90% normal saline formulation). Plasma, brain, and CSF samples were analyzed at various time points over a 24 hour period.
Structure (SMILES),Emax [1] [%],EC50 [2] [nM],Emax [2] [%],A: % maximal [3H]MK-801 binding relative to 1 mM glycine [1],A: % maximal [3H]MK-801 binding relative to 1 mM glycine [2],EC50 [1] [nM],also measured
"CC1CCC2(CC1)CN([C@H](C(N)=O)[C@@H](C)O)C2=O (mixture of isomers) [Compound AN, (2S,3R)-3-hydroxy-2-(7-methyl-1-oxo-2-azaspiro[3.5]nonan-2-yl)butanamide]",0,< 1,< 100,–,–,–,AUC(0-t) [3]: 1470 ng·h/mL; half-life [3]: 19.2 min; C0 [3]: 3100 ng/mL; Vd [3]: 0.59 L/kg; CI [3]: 22.44 mL/min/kg; AUC(0-t) [4]: 4850 ng·h/mL; bioavailability [4]: 66%; Tmax [4]: 15 min; Cmax [4]: 4330 ng/mL; CSF Cmax [4]: 1384.82 ng/mL; Brain Cmax [4]: 1501.76 ng/mL
"COc1ccc(CN2CC3(CCC(OCc4ccccc4)CC3)C2=O)cc1 (single isomer, unassigned) [AE, 7-(benzyloxy)-2-(4-methoxybenzyl)-2-azaspiro[3.5]nonan-1-one]",–,< 1,–,− (−=0),+ (<100%=+),–,–
"COc1ccc(CN2CC3(CCC(OCc4ccccc4)CC3)C2=O)cc1 (single isomer, unassigned) [AF, 7-(benzyloxy)-2-(4-methoxybenzyl)-2-azaspiro[3.5]nonan-1-one]",–,–,–,+ (<100%=+),− (−=0),< 1,–
"CC1CCC2(CC1)CN(C(CCC(N)=O)C(N)=O)C2=O (single isomer, unassigned) [BE, 2-(7-methyl-1-oxo-2-azaspiro[3.5]nonan-2-yl)pentanediamide]",< 100,–,–,–,− (−=0),< 1,–
"CC1CCC2(CC1)CN(C(CO)C(=O)O)C2=O (single isomer, unassigned) [EM, 3-hydroxy-2-(7-methyl-1-oxo-2-azaspiro[3.5]nonan-2-yl)propanoic acid]",–,< 1,< 100,− (−=0),–,–,–
"CC1CCC2(CC1)CN(C(CO)C(=O)O)C2=O (single isomer, unassigned) [EN, 3-hydroxy-2-(7-methyl-1-oxo-2-azaspiro[3.5]nonan-2-yl)propanoic acid]",–,< 1,–,+ (<100%=+),+ (<100%=+),< 1,AUC(0-t) [3]: 1760 ng·h/mL; half-life [3]: 440 min; C0 [3]: 9440 ng/mL; Vd [3]: 1.16 L/kg; CI [3]: 19.38 mL/min/kg; AUC(0-t) [4]: 2210 ng·h/mL; bioavailability [4]: 25%; Tmax [4]: 15 min; Cmax [4]: 1490 ng/mL; CSF Cmax [4]: 22 ng/mL; Brain Cmax [4]: 61 ng/mL
"O=C1NCC12CCC(OCc1ccccc1)CC2 (centres unmarked) [AJ, 7-(benzyloxy)-2-azaspiro[3.5]nonan-1-one]",0,–,0,–,–,–,–
"O=C1NCC12CCC(O)CC2 (centres unmarked) [AK, 7-hydroxy-2-azaspiro[3.5]nonan-1-one]",–,–,0,− (−=0),–,–,–
"COc1ccc(CN2CC3(CCC(C)CC3)C2=O)cc1 (centres unmarked) [Compound AC, 2-(4-methoxybenzyl)-7-methyl-2-azaspiro[3.5]nonan-1-one]",0,–,0,–,–,–,–
